Source: ChEMBL document CHEMBL3286390, “Lead optimization of 1,4-azaindoles as antimycobacterial agents” (J Med Chem, 2014)
Values after ≈ are worked out from the molar mass of the structure shown. Active and inactive are the calls of the source. No cut-off for these calls is given here.

Columns and labels:
[1] = test system: Mycobacterium tuberculosis; assay: microbe, parasite or virus in culture; settings: H37Rv ATCC 27294, 120 h
Description: Antimicrobial activity against Mycobacterium tuberculosis H37Rv ATCC 27294 assessed as growth inhibition after 5 days by microdilution method

[2] = test system: Mycobacterium tuberculosis; format: functional, H37Rv ATCC 27294, THP-1
[3] = Inhibition of Mycobacterium smegmatis thioredoxin 6xHis-tagged decaprenylphosphoryl-beta-D-ribose2'-epimerase 1 overexpressed in Escherichia coli rosetta cells using farnesyl-phosphoryl-beta-D-ribofuranose as substrate; design: species or system Mycolicibacterium smegmatis
[4] = Intrinsic clearance in mouse liver microsomes; format: ADME; settings: read-out: CLH
[5] = Octanol-water partition coefficient, log D of the compound at pH 7.4 by shake flask method; format: physicochemical
Phosphodiesterase 6 = assay: Inhibition of PDE6 (unknown origin); format: protein assay, Homo sapiens
[6] = Aqueous solubility of the compound in phosphate buffer at pH 7.4 after 24 hrs by UV-MS analysis; format: physicochemical
[7] = Unbound fraction in human plasma; format: ADME, cell-free
Cytochrome P450 2D6 = Cytochrome P450 2D6 (Homo sapiens, UniProt P10635); assay: Inhibition of human CYP2D6; format: ADME
Sequence of Cytochrome P450 2D6 (P10635 whole entry): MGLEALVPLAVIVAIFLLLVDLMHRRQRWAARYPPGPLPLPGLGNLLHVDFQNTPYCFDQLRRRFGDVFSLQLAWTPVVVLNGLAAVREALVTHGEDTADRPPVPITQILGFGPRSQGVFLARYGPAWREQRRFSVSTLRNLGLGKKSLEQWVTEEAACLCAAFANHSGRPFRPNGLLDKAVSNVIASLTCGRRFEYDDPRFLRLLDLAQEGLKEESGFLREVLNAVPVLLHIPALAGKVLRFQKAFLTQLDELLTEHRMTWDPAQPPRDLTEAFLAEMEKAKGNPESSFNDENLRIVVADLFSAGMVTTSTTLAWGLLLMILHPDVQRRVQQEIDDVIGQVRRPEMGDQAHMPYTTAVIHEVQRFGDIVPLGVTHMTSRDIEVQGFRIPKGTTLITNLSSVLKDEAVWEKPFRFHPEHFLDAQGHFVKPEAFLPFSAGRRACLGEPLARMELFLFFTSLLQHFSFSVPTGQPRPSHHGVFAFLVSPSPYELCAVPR

Cytochrome P450 2C19 = Cytochrome P450 2C19 (Homo sapiens, UniProt P33261); assay: Inhibition of human CYP2C19; format: ADME
Sequence of Cytochrome P450 2C19 (P33261 whole entry): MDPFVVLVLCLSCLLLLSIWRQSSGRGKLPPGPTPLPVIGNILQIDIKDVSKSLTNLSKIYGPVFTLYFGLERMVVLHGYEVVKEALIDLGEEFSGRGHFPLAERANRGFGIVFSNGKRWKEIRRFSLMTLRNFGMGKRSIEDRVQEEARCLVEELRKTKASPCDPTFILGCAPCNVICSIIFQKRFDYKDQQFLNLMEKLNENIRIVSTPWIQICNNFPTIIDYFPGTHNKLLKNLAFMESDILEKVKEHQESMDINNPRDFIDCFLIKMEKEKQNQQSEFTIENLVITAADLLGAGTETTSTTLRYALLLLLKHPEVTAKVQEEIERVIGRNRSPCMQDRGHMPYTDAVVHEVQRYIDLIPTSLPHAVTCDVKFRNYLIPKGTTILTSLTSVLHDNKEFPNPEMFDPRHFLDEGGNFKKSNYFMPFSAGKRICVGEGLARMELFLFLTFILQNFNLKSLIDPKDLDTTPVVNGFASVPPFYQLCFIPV

Cytochrome P450 2C9 = Cytochrome P450 2C9 (Homo sapiens, UniProt P11712); assay: Inhibition of human CYP2C9; format: ADME
Sequence of Cytochrome P450 2C9 (P11712 whole entry): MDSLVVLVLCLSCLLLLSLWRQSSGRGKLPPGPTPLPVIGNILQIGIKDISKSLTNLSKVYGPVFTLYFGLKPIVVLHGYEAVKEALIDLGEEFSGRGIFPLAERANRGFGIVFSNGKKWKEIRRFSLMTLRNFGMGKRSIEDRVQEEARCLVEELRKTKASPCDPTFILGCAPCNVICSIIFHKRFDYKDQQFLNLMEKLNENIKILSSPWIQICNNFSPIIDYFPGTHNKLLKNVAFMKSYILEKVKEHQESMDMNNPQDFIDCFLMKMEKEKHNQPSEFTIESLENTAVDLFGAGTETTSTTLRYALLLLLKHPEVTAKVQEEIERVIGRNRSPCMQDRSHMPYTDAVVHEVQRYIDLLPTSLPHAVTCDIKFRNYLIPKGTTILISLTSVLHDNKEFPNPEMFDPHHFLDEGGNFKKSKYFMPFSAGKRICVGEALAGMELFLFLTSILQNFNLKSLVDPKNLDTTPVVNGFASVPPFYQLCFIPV

Cytochrome P450 1A2 = biological target: T1, Cytochrome P450 1A2 (Homo sapiens, UniProt P05177); assay: Inhibition of human CYP1A2; format: ADME
T1 sequence (P05177 whole entry): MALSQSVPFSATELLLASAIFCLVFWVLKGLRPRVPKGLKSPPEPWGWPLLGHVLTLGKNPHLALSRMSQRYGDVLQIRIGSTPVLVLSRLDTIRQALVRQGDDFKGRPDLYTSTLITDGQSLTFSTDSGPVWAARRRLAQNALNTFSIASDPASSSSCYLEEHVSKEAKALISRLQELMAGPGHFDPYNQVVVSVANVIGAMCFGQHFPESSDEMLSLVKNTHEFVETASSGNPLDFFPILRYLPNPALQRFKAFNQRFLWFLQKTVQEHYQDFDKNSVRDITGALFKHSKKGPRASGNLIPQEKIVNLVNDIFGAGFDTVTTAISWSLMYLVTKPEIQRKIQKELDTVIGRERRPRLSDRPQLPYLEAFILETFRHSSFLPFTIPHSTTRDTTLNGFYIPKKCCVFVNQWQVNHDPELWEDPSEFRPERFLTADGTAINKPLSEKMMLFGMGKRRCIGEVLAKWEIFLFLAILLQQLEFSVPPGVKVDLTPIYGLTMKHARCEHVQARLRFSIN

Cytochrome P450 3A4 = Cytochrome P450 3A4 (Homo sapiens, UniProt P08684); assay: Inhibition of human CYP3A4; format: ADME
Sequence of Cytochrome P450 3A4 (P08684 whole entry): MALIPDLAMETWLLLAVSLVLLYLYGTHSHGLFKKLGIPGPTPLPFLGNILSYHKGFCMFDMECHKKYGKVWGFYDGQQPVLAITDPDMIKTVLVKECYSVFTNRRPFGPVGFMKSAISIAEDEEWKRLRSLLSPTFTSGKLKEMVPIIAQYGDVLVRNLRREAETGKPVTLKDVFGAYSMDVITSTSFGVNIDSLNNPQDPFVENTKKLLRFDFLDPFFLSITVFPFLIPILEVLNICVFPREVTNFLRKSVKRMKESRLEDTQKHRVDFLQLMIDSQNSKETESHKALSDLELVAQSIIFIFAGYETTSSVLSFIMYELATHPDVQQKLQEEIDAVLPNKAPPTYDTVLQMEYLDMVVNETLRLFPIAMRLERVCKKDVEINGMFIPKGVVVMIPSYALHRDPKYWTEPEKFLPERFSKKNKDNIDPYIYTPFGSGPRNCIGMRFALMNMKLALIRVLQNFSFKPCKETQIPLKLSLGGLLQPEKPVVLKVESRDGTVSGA

[8] = Oral bioavailability in rat; format: ADME, organism-based; settings: in vivo
[9] = test system: Mycobacterium tuberculosis; format: functional, organism-based; design: dose 100 mg/kg; settings: H37Rv ATCC 27294, Lung, 100 mg/kg
[10] = Cmax in BALB/c mouse at 30 mg/kg, po administered as single dose; format: ADME, organism-based; design: dose 30 mg/kg, route oral; settings: in vivo
[11] = Tmax in BALB/c mouse at 30 mg/kg, po administered as single dose; format: ADME, organism-based; design: dose 30 mg/kg, route oral; settings: in vivo
[12] = AUC (infinity) in BALB/c mouse at 30 mg/kg, po administered as single dose; format: ADME, organism-based; design: time infinity, dose 30 mg/kg, route oral; settings: plasma
[13] = Half life in BALB/c mouse at 30 mg/kg, po administered as single dose; format: ADME, organism-based; design: dose 30 mg/kg, route oral; settings: in vivo
Rattus norvegicus [14] = assay: AUC in Mycobacterium tuberculosis H37Rv ATCC 27294 infected Wistar rat infection model at 100 mg/kg, po; format: ADME, organism-based; design: dose 100 mg/kg, route oral; settings: in vivo
Rattus norvegicus [15] = assay: T>MIC in Wistar rat chronically infected with Mycobacterium tuberculosis H37Rv ATCC 27294 at 100 mg/kg, po
[16] = Permeability across basolateral to apical side in human Caco2 cells; format: ADME, cell-based; settings: Caco-2, read-out: permeability
[17] = biological target: Voltage-gated inwardly rectifying potassium channel KCNH2 (Homo sapiens, UniProt Q12809)
Sequence of Voltage-gated inwardly rectifying potassium channel KCNH2 (Q12809 whole entry): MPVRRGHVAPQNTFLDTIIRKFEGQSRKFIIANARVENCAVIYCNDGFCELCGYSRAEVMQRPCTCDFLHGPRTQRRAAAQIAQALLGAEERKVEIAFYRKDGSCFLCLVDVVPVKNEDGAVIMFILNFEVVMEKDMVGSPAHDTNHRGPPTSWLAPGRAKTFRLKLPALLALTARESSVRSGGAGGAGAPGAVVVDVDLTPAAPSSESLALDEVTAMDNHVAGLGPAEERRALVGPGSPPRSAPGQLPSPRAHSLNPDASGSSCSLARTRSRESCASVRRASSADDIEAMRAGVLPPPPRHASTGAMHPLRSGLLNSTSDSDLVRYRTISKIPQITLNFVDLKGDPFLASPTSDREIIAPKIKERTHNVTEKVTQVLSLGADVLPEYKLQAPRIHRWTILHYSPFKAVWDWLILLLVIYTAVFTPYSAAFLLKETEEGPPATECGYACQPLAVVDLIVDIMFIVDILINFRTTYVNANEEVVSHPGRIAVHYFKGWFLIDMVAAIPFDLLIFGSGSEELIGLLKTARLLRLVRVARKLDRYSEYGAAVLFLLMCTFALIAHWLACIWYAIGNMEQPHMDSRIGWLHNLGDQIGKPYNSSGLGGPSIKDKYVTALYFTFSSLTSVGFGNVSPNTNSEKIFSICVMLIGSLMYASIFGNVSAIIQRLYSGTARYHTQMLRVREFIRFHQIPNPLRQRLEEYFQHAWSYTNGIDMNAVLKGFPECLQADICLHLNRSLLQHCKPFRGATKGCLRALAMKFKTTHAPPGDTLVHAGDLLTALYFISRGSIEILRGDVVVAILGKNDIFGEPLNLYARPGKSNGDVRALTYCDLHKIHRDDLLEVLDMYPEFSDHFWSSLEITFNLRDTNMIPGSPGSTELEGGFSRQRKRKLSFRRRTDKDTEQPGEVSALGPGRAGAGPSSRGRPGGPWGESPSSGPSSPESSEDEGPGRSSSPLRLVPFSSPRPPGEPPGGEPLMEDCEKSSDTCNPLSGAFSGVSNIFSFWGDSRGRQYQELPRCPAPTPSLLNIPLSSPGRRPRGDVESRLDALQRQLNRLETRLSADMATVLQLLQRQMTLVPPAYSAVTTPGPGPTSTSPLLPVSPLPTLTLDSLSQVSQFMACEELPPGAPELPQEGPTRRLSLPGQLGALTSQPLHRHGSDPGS

[18] = Permeability across apical to basolateral side in human Caco2 cells; format: ADME, cell-based; settings: Caco-2, read-out: permeability
[19] = Clearance in po dosed rat; format: ADME, organism-based; settings: in vivo
[20] = Cmax in BALB/c mouse at 100 mg/kg, po administered as single dose; format: ADME, organism-based; design: dose 100 mg/kg, route oral; settings: in vivo
[21] = Tmax in BALB/c mouse at 100 mg/kg, po administered as single dose; format: ADME, organism-based; design: dose 100 mg/kg, route oral; settings: in vivo
[22] = AUC (infinity) in BALB/c mouse at 100 mg/kg, po administered as single dose; format: ADME, organism-based; design: time infinity, dose 100 mg/kg, route oral; settings: plasma
[23] = Half life in BALB/c mouse at 100 mg/kg, po administered as single dose; format: ADME, organism-based; design: dose 100 mg/kg, route oral; settings: in vivo
[24] = Cmax in BALB/c mouse at 50 mg/kg, po administered as single dose; format: ADME, organism-based; design: dose 50 mg/kg, route oral; settings: in vivo
[25] = Tmax in BALB/c mouse at 50 mg/kg, po administered as single dose; format: ADME, organism-based; design: dose 50 mg/kg, route oral; settings: in vivo
[26] = AUC (infinity) in BALB/c mouse at 50 mg/kg, po administered as single dose; format: ADME, organism-based; design: dose 50 mg/kg, route oral, time infinity; settings: plasma
[27] = Half life in BALB/c mouse at 50 mg/kg, po administered as single dose; format: ADME, organism-based; design: dose 50 mg/kg, route oral; settings: in vivo
[28] = Mycobacterium tuberculosis, H37Rv ATCC 27294, read-out: MIC

Compound `NNC(=O)c1ccncc1` [ISONIAZID] has an MIC [1] of 0.312 µM (≈ 0.0428 µg/mL).

In the case of `COc1cnc2c(C(=O)NCC(F)F)cn(Cc3ncnc(OC)c3C)c2c1`, the MIC [2, 28] is reported as < 0.39 µM, the IC50 [3] is reported as 9 nM and the microsomal CLint [4] is reported as 106 µL/min/mg. The logD [5] was 2.8.

In the case of `COc1ncnc(Cn2cc(C(=O)NCCF)c3ncccc32)c1C`, the MIC [2] is reported as 0.78 µM (≈ 0.268 µg/mL), the IC50 [3] is reported as 10 nM and the IC50 (Phosphodiesterase 6) is reported as 9000 nM.

`COc1ncc(C(F)(F)F)cc1Cn1cc(C(=O)NCCO)c2ncc(C)cc21` gave an MIC [2, 28] of 1.56 µM (≈ 0.637 µg/mL) and an IC50 [3] of 7 nM.

`COc1cnc2c(C(=O)NCCO)cn(Cc3ncnc(OC(F)F)c3C)c2c1` showed an MIC [2, 28] of 0.78 µM (≈ 0.318 µg/mL) and an IC50 [3] of 17 nM.

`CO[C@H]1/C=C/O[C@@]2(C)Oc3c(C)c(O)c4c(O)c(cc(O)c4c3C2=O)NC(=O)/C(C)=C\C=C\[C@H](C)[C@H](O)[C@@H](C)[C@@H](O)[C@@H](C)[C@H](OC(C)=O)[C@@H]1C` [RIFAMYCIN] gave an MIC [1] of 0.004 µM (≈ 0.00279 µg/mL).

In the case of `COc1ncnc(Cn2cc(C(=O)NCCF)c3ncc(C)cc32)c1C`, the MIC [2, 28] is reported as < 0.39 µM, the IC50 [3] is reported as 3 nM and the IC50 (Phosphodiesterase 6) is reported as 1000 nM. It also gave a microsomal CLint [4] of 107 µL/min/mg, a solubility at 24 h [6] of 4 µM (≈ 1.43 µg/mL) and a fraction unbound [7] of 0.07. The IC50 (Cytochrome P450 2D6) was > 50000 nM, the IC50 (Cytochrome P450 2C19) was > 50000 nM and the IC50 (Cytochrome P450 2C9) was > 50000 nM. For the same compound, the IC50 (Cytochrome P450 1A2) was > 50000 nM, the IC50 (Cytochrome P450 3A4) was > 50000 nM and the bioavailability [8] was 80%. The Activity [9] was “Active”, the Cmax [10] was 5.24 µM and the Tmax [11] was 15 min. It also gave an AUC(0-inf) [12] of 2 µM·h, a half-life [13] of 30 min and an AUC (Rattus norvegicus [14]) of 23 µM·h. The “T>MIC” value (Rattus norvegicus [15]) was 10 h, the Papp B→A [16] was 18 ×10⁻⁶ cm/s and the IC50 [17] was > 33000 nM.

In the case of `COc1cnc2c(C(=O)NCC(F)F)cn(Cc3ncnc(N(C)C)c3C)c2c1`, the MIC [2, 28] is reported as < 0.39 µM, the IC50 [3] is reported as 3 nM and the microsomal CLint [4] is reported as > 130 µL/min/mg. For the same compound, the logD [5] was 2.5.

For `COc1ncc(F)cc1Cn1cc(C(=O)NC[C@H](C)F)c2ncc(C)cc21`, the MIC [2, 28] was < 0.39 µM, the IC50 [3] was 4 nM and the IC50 (Phosphodiesterase 6) was > 100000 nM.

`COc1cnc2c(C(=O)NCCO)cn(Cc3ncnc(OC)c3C)c2c1` showed an MIC [2, 28] of 0.78 µM (≈ 0.29 µg/mL), an IC50 [3] of 19 nM and an IC50 (Phosphodiesterase 6) of 2000 nM. For the same compound, the microsomal CLint [4] was < 24 µL/min/mg, the logD [5] was 1.6 and the solubility at 24 h [6] was 315 µM (≈ 117 µg/mL). For the same compound, the fraction unbound [7] was 0.17, the Papp A→B [18] was 11 ×10⁻⁶ cm/s and the IC50 (Cytochrome P450 2D6) was > 50000 nM. For the same compound, the IC50 (Cytochrome P450 2C19) was > 50000 nM, the IC50 (Cytochrome P450 2C9) was > 50000 nM and the IC50 (Cytochrome P450 1A2) was > 50000 nM. For the same compound, the IC50 (Cytochrome P450 3A4) was > 50000 nM, the CL/F [19] was 12 mL/min/kg and the bioavailability [8] was 100%. It also gave a Cmax [20] of 105 µM, a Tmax [21] of 30 min and an AUC(0-inf) [22] of 286 µM·h. The half-life [23] was 120 min, the Papp B→A [16] was 31 ×10⁻⁶ cm/s and the MIC [1] was 1.56 µM (≈ 0.579 µg/mL).

In the case of `COc1ncnc(Cn2cc(C(=O)NCCO)c3ncc(C)cc32)c1C` [TBA-7371], the IC50 [3] is reported as 10 nM, the IC50 (Cytochrome P450 2D6) is reported as > 50000 nM and the IC50 (Cytochrome P450 2C19) is reported as > 50000 nM. The IC50 (Cytochrome P450 2C9) was > 50000 nM, the IC50 (Cytochrome P450 1A2) was > 50000 nM and the IC50 (Cytochrome P450 3A4) was > 50000 nM. The CL/F [19] was 27 mL/min/kg, the bioavailability [8] was 100% and the Cmax [24] was 73 µM. The Tmax [25] was 15 min, the AUC(0-inf) [26] was 62 µM·h and the half-life [27] was 42 min. For the same compound, the IC50 [17] was > 33000 nM.

With `Cc1c(Cn2cc(C(=O)NCCF)c3ncccc32)ncnc1N(C)C` the IC50 [3] was 20 nM and the IC50 (Phosphodiesterase 6) was > 100000 nM.

`C[C@H]1COC2(CCN(c3nc(=O)c4cc(C(F)(F)F)cc([N+](=O)[O-])c4s3)CC2)O1` [BTZ-043] showed an MIC [1] of 0.0015 µM (≈ 0.000647 µg/mL).

Work on `COc1ncnc(Cn2cc(C(=O)NCCF)c3ncc(Br)cc32)c1C` yielded an MIC [2, 28] of 1.56 µM (≈ 0.659 µg/mL), an IC50 [3] of 22 nM and a logD [5] of 2.4.

With `COc1cnc2c(C(=O)NCC(F)F)cn(Cc3ncnc(OC(F)F)c3C)c2c1` the MIC [2, 28] was < 0.39 µM, the IC50 [3] was 5 nM and the logD [5] was 2.4.

With `Cc1cnc2c(C(=O)NCCF)cn(Cc3ncc(C)nc3C)c2c1` the MIC [2, 28] was < 0.39 µM, the IC50 [3] was 11 nM and the microsomal CLint [4] was 22 µL/min/mg. For the same compound, the logD [5] was 2.2.
